Experimental data from EPA's ToxValDB 9.5.
Where “and” joins values, the source holds several entries; their conditions need not be identical. Equal entries are not always repeated.

Legend:
Rattus norvegicus [1] = settings: oral
Rattus norvegicus [2] = settings: acute; oral; Sprague-Dawley
Rattus norvegicus [3] = settings: oral, gavage, Sprague-Dawley; for NOEL: short-term, duration: 28 days, Clinical Observation: Soft feces + Urinalysis: pH decrease + Hematology: PT increase, APTT increase + Blood Chemistry: T-CHO increase, T-BIL…
Rattus norvegicus [4] = settings: oral; remark: listed apart in the source
Mus musculus = settings: oral, drinking water
[5] = subchronic, duration: 90 days, diet, M/F, reduced body weight
[6] = developmental, diet, M/F, increased body weight and liver weight, reduced ossification and slightly dilated ureters in fetuses, reduced offspring weight gain, total …
[7] = chronic, duration: 2 years, diet, M/F, reduced body weight
[8] = developmental, M/F, reduced pup survival
[9] = chronic, M/F, kidney damage and reduced lifespan
[10] = chronic, duration: 6 months, drinking water, M/F, Sprague-Dawley, Morris water maze (escape time, acquisition, day 1)
[11] = developmental, drinking water, M/F, Wistar, generation: F1, F1: activity time (developmental phase III) + F1: open field (squares traveled, 9 min)
[12] = chronic, duration: 6 months, M, Kunming, novel object test (discrimination index) + open field (outer zone entry events)
[13] = chronic, duration: 6 months, M, Kunming, open field (center square entry events) + open field (middle zone line cross events)

`CCCCOC(=O)COC(=O)c1ccccc1C(=O)OCCCC` was tested, and the NOEL (Rattus norvegicus [1]; chronic, no effects) was 1000 mg/kg-day.
Work on `ClCC(Cl)(Cl)Cl` [1,1,1,2-Tetrachloroethane] yielded an LOAEL (Rattus norvegicus [1]; chronic, gavage, M/F, mineralization of the kidneys (males), hepatic clear cell change (females)) of 125 mg/kg-day.
`C1CSCCS1` [1,4-Dithiane] showed an LOAEL (Rattus norvegicus [1]; subchronic, duration: 90 days, gavage, M/F, nasal olfactory lesions) of 105 mg/kg-day.
With `CCC(C)(C)c1ccc(O)c(C(C)(C)CC)c1` [2,4-Di-tert-pentylphenol] the LD50 (Rattus norvegicus [2]) was 920 mg/kg and the NOAEL (Rattus norvegicus [3]; subchronic, M, Deaths + Clinical Observation: Salivation/100 Soft feces/100 + Body Weight Changes: Body weight gain decrease + Urinalysis: Volume increase…) was 10 mg/kg-day.
For `CCC(C)c1cc(C(C)(C)C)c(O)c(C(C)(C)C)c1` (stereo not drawn) [4-(Butan-2-yl)-2,6-di-tert-butylphenol], the LC50 (Rattus norvegicus [2]) was 4800 mg/kg, the NOEL (Rattus norvegicus [3]; F) was < 15 mg/kg-day and the NOEL (Rattus norvegicus [3]; M) was 15 mg/kg-day.
`NS(=O)(=O)[O-].[NH4+]` [Ammonium sulfamate] was tested, and the LEL (Rattus norvegicus [1]; [5]) was 500 mg/kg-day and the NOEL (Rattus norvegicus [1]; [5]) was 250 mg/kg-day and 214 mg/kg-day.
In the case of `COC(=O)NS(=O)(=O)c1ccc(N)cc1` [Asulam], the LEL (Rattus norvegicus [1]; reproduction developmental, F, reduced ovarian weight, lower liver/body weight) is reported as 50 mg/kg-day.
`CCCCC(CC)COC(=O)CCCCC(=O)OCC(CC)CCCC` (stereo not drawn) [Bis(2-ethylhexyl)hexanedioate] gave an LOAEL (Rattus norvegicus [1]; [6]) of 1080 mg/kg-day and an NOAEL (Rattus norvegicus [1]; [6]) of 170 mg/kg-day.
Work on `CCCCN(CCCC)SN(C)C(=O)Oc1cccc2c1OC(C)(C)C2` [Carbosulfan] yielded an LEL (Rattus norvegicus [1]; [7]) of 25 mg/kg-day and an NOEL (Rattus norvegicus [1]; [7]) of 1 mg/kg-day.
`COP(=O)(OC)O/C(C)=C/C(=O)N(C)C` [Dicrotophos] was tested, and the LEL (Rattus norvegicus [1]; [8]) was 0.25 mg/kg-day and the NOEL (Rattus norvegicus [1]; [8]) was 0.1 mg/kg-day.
In the case of `Cn1c(-c2ccccc2)cc(-c2ccccc2)[n+]1C` [Difenzoquat], the LEL (Rattus norvegicus [1]; [7]) is reported as 125 mg/kg-day and the NOEL (Rattus norvegicus [1]; [7]) is reported as 25 mg/kg-day.
Work on `CCOC(=O)COC(=O)c1ccccc1C(=O)OCC` [Ethyl phthalyl ethyl glycolate] yielded an LOAEL (Rattus norvegicus [1]; [9]) of 2500 mg/kg-day and an NOEL (Rattus norvegicus [1]; [9]) of 250 mg/kg-day.
`[F-]` [Fluoride] was tested, and the NOEL (Rattus norvegicus [4]; chronic, duration: 4 months, diet, M, Hooded, T-maze, multiple (number of errors, acquisition, trial 1) + T-maze, multiple (number of errors, retention, trial 9) + T-maze, multiple (time…) was 6.13 mg/kg-day, the LOEL (Rattus norvegicus [4]; [10]) was 5.96 mg/L urine and the NOEL (Rattus norvegicus [4]; [10]) was 2.59 mg/L urine. For the same compound, the NOEL (Rattus norvegicus [4]; chronic, duration: 6 months, drinking water, M/F, Sprague-Dawley, Morris water maze (escape time, acquisition, day 5)) was 5.96 mg/L urine, the “NOEL (mg/kg ash femur)” value (Rattus norvegicus [4]; chronic, duration: 8 months, drinking water, F, Sprague-Dawley, acquisition of the bar press response (days to reach learning criteria) + acquisition of the bar press response (maximum response)) was 14800 and the NOEL (Rattus norvegicus [4]; chronic, duration: 16 weeks, drinking water, F, Sprague-Dawley, activity box (attention cluster, total time) + activity box (groom cluster, initiations) + activity box (groom cluster, total time) + …) was 19 mg/kg-day. The LOEL (Rattus norvegicus [4]; chronic, duration: 16 weeks, drinking water, F, Sprague-Dawley, activity box (groom/attention cluster initiations) + activity box (groom/attention cluster total time) + activity box (groom/explore cluster…) was 19 mg/kg-day, the LOEL (Rattus norvegicus [4]; chronic, duration: 16 weeks, drinking water, M, Sprague-Dawley, activity box (attention cluster, total time) + activity box (groom cluster, initiations) + activity box (groom cluster, total time) + …) was 19 mg/kg-day and the NOEL (Rattus norvegicus [4]; chronic, duration: 16 weeks, drinking water, M, Sprague-Dawley, activity box (groom/attention cluster, total time) + activity box (head turn, initiations) + activity box (head turn, total time)) was 19 mg/kg-day. It also gave an NOEL (Rattus norvegicus [4]; chronic, duration: 104 days, drinking water, M, Sprague-Dawley, Von Frey hair test (withdrawal threshold, day 0)) of 20.8 mg/kg-day, an LOEL (Rattus norvegicus [4]; chronic, duration: 104 days, drinking water, M, Sprague-Dawley, tail immersion (withdrawal latency to heat, day 112) + Von Frey hair test (withdrawal threshold, day 104)) of 10.4 mg/kg-day and an NOEL (Rattus norvegicus [4]; chronic, duration: 195 days, drinking water, M, Lou/C, tail immersion (withdrawal latency to heat, 195 days) + Von Frey hair test (withdrawal threshold, 195 days) + Von Frey hair test (withdrawal…) of 20.8 mg/kg-day. It also gave an LOEL (Rattus norvegicus [4]; developmental, drinking water, F, Wistar, generation: F1, F1: pain response (latency time to respond to hot plate)) of 5.29 mg/kg-day, an LOEL (Rattus norvegicus [4]; developmental, drinking water, M/F, Sprague-Dawley, generation: F1, F1: Morris water maze (escape time, acquisition, average over days 1-4) + F1: Morris water maze (platform crossing, probe test, day 5) + F1…) of 3.27 mg/kg-day and an NOEL (Rattus norvegicus [4]; developmental, drinking water, M/F, Wistar, generation: F1, F1: Morris water maze (number of errors, acquisition) + F1: Morris water maze (time to find platform, probe test)) of 1.06 mg/kg-day. It also gave an LOEL (Rattus norvegicus [4]; developmental, drinking water, M/F, Wistar, generation: F1, F1: Morris water maze (number of errors, acquisition) + F1: Morris water maze (time to find platform, probe test) + F1: open field (face …) of 5.29 mg/kg-day, an LOEL (Rattus norvegicus [4]; developmental, drinking water, M/F, Wistar, generation: F1, F1: T-maze (number of errors, retention phase) + F1: T-maze (number of sessions to reach learning criterion)) of 16 mg/kg-day and an NOEL (Rattus norvegicus [4]; developmental, drinking water, M/F, Wistar, generation: F1, F1: activity time (developmental phase I) + F1: activity time (developmental phase II) + F1: activity time (developmental phase III) + F1: …) of 5.29 mg/kg-day. For the same compound, the LOEL (Rattus norvegicus [4]; [11]) was 1.06 mg/kg-day, the NOEL (Rattus norvegicus [4]; [11]) was 0.21 mg/kg-day and the LOEL (Rattus norvegicus [4]; developmental, drinking water, M/F, Wistar, generation: F1, F1: open field (face scrubbing events, 9 min)) was 0.21 mg/kg-day. The LOEL (Rattus norvegicus [4]; developmental, drinking water, M/F, Wistar, generation: F2, F2: T-maze (number of errors, retention phase) + F2: T-maze (number of sessions to reach learning criterion)) was 16 mg/kg-day, the LOEL (Rattus norvegicus [4]; developmental, drinking water, M/F, Wistar, generation: F3, F3: T-maze (number of errors, retention phase) + F3: T-maze (number of sessions to reach learning criterion)) was 16 mg/kg-day and the LOEL (Rattus norvegicus [4]; developmental, drinking water, M, Wistar, generation: F1, F1: pain response (latency time to respond to hot plate)) was 5.29 mg/kg-day. The NOEL (Rattus norvegicus [4]; subchronic, duration: 6 weeks, drinking water, F, Sprague-Dawley, activity box (attention cluster, total time) + activity box (groom/attention cluster, total time) + activity box (groom/explore cluster, …) was 21.4 mg/kg-day, the LOEL (Rattus norvegicus [4]; subchronic, duration: 6 weeks, drinking water, F, Sprague-Dawley, activity box (groom cluster, initiations) + activity box (groom cluster, total time) + activity box (groom, initiations) + activity box (…) was 21.4 mg/kg-day and the LOEL (Rattus norvegicus [4]; subchronic, drinking water, M/F, Sprague-Dawley, generation: P0, P0: Morris water maze (escape time, acquisition, average over days 1-4) + P0: Morris water maze (platform crossing, probe test, day 5) + P0…) was 3.27 mg/kg-day. For the same compound, the LOEL (Mus musculus; chronic, duration: 6 months, M/F, Kunming, active avoidance (shuttle box, 1st trial number where 3 consecutive conditioned avoidance responses occurred) + active avoidance (shuttle …) was 2.63 mg/kg-day, the NOEL (Mus musculus; chronic, duration: 6 months, M/F, Kunming, active avoidance (shuttle box, response latency to conditioned avoidance response averaged over 150 trials)) was 26.3 mg/kg-day and the LOEL (Mus musculus; [12]) was 11.5 mg/kg-day. For the same compound, the NOEL (Mus musculus; [12]) was 5.63 mg/kg-day, the NOEL (Mus musculus; chronic, duration: 6 months, M, Kunming, novel object test (time exploring familiar object, long-term memory phase) + novel object test (time exploring familiar object, short-term …) was 11.5 mg/kg-day and the LOEL (Mus musculus; [13]) was 5.63 mg/kg-day. For the same compound, the NOEL (Mus musculus; [13]) was 2.82 mg/kg-day, the LOEL (Mus musculus; chronic, duration: 6 months, M, Kunming, open field (middle zone entry events) + open field (outer zone line cross events) + open field (total distance moved)) was 2.82 mg/kg-day and the LOEL (Mus musculus; subchronic, duration: 90 days, M, Swiss, open field (defecation) + open field (grooming events) + open field (rearing events) + open field (squares crossed)) was 9.58 mg/kg-day. It also gave an NOEL (Mus musculus; subchronic, duration: 90 days, M, Swiss, tail suspension test (immobility time, total 6 min)) of 9.58 mg/kg-day.
